Test results published in patent US10377773B2, “Isothiazolopyrimidinones, pyrazolopyrimidinones, and pyrrolopyrimidinones as ubiquitin-specific protease 7 inhibitors” (FORMA Therapeutics, Inc., priority 2015, dated 2019).

Target: T1, USP7 (Homo sapiens, UniProt Q93009)
T1 construct: USP7, construct USP7 (208-1102) 6*His, Viva Biotech; initiator Met (N); TEV site (C); 6*His (C); purchased Viva Biotech
Test: USP7 Assay A and B (Ubiquitin-Rhodamine 110 assay)
Assay type: biochemical
Settings: Ub-Rh110 substrate 25 nM, read-out: USP7_IC50
Protocol: Each assay was performed in a final volume of 15 μL in assay buffer containing 20 mM Tris-HCl (pH 8.0, (1M Tris-HCl, pH 8.0 solution; Corning 46-031-CM)), 1 mM GSH (L-Glutathione reduced; Sigma #G4251), 0.03% BGG (0.22 μM filtered, Sigma, #G7516-25G), and 0.01% Triton X-100 (Sigma, #T9284-10L). Nanoliter quantities of either an 8-point or 10-point, 3-fold serial dilution in DMSO was pre-dispensed into assay plates (Perkin Elmer, ProxiPlate-384 F Plus, #6008269) for a final test concentration range of either 25 μM to 11 nM or 25 μM to 1.3 nM, respectively. The final concentration of the enzyme (USP7, construct USP7 (208-1102) 6*His, Viva Biotech) in the assay was 62.5 pM. Final substrate (Ub-Rh110; Ubiquitin-Rhodamine 110, R&D Systems #U-555) concentration was 25 nM with [Ub-Rh110]<<Km. 5 μL of 2× enzyme was added to the assay plates (pre-stamped with compound) and preincubated with USP7 for 30 min. 5 μL of 2×Ub-Rh110 was then added to assay plates. Plates were incubated stacked for 20 min at room temperature before 5 μL of stop solution (final concentration of 10 mM citric acid in assay buffer (Sigma, #251275-500G)). Fluorescence was read on the Envision (Excitation at 485 nm and Emission at 535 nm; Perkin Elmer) or on the PheraSTAR (Excitation at 485 nm and Emission at 535 nm; BMG Labtech).
Each assay was performed in a final volume of 20 μL in assay buffer containing 20 mM Tris-HCl (pH 8.0, (1M Tris-HCl, pH 8.0 solution; Corning 46-031-CM)), 2 mM CaCl2 (1M calcium chloride solution; Sigma #21114), 1 mM GSH (L-Glutathione reduced; Sigma #G4251), 0.01% Prionex (0.22 μM filtered, Sigma #G-0411), and 0.01% Triton X-100. Stock compound solutions were stored at −20° C. as 10 mM in DMSO. Up to 1 month prior to the assay, 2 mM test compounds were pre-dispensed into assay plates (Black, low volume; Corning #3820) and frozen at −20° C. Prestamped assay plates were allowed to warm to room temperature on the day of the assay. For the screen, 100 nL of 2 mM was pre-dispensed for a final screening concentration of 10 μM (DMSO(fc)=0.5%). For follow-up studies, 250 nL of an 8-point, 3-fold serial dilution in DMSO was pre-dispensed into assay plates for a final test concentration of 25 μM-11 nM (1.25c % DMSO final concentration). Unless otherwise indicated, all follow-up assays were run on triplecate plates. Enzyme (USP7, construct Met (208-1102)-TEV-6*His; Viva Q93009-1) concentration and incubation times were optimized for the maximal signal-to-background while maintaining initial velocity conditions at a fixed substrate concentration. The final concentration of the enzyme in the assay was either 75 pM or 250 pM. Final substrate (Ub-Rh110; Ubiquitin-Rhodamine 110, R&D Systems (biotechne)#U-555) concentration was 25 nM with [Ub-Rh110]<<Km. Compounds were either not preincubated or preincubated with USP7 between 30 to 120 min prior to the addition of 10 μL of 2×Ub-Rh110 to compound plates. Plates were incubated stacked for either 23 or 45 min at room temperature before fluorescence was read on the Envision (Excitation at 485 nm and Emission at 535 nm; Perkin Elmer) or on the PheraSTAR (Excitation at 485 nm and Emission at 535 nm; BMG Labtech).
Data from USP7 Assays A and B were reported as percent inhibition (inh) compared with control wells based on the following equation: % inh=1−((FLU−AveLow)/(AveHigh−AveLow)) where FLU=measured Fluorescence, AveLow=average Fluorescence of no enzyme control (n=16), and AveHigh=average Fluorescence of DMSO control (n=16). IC50 values were determined by curve fitting of the standard 4 parameter logistic fitting algorithm included in the Activity Base software package: IDBS XE Designer Model205. Data was fitted using the Levenburg Marquardt algorithm.

T1 sequence (Q93009 208-1102): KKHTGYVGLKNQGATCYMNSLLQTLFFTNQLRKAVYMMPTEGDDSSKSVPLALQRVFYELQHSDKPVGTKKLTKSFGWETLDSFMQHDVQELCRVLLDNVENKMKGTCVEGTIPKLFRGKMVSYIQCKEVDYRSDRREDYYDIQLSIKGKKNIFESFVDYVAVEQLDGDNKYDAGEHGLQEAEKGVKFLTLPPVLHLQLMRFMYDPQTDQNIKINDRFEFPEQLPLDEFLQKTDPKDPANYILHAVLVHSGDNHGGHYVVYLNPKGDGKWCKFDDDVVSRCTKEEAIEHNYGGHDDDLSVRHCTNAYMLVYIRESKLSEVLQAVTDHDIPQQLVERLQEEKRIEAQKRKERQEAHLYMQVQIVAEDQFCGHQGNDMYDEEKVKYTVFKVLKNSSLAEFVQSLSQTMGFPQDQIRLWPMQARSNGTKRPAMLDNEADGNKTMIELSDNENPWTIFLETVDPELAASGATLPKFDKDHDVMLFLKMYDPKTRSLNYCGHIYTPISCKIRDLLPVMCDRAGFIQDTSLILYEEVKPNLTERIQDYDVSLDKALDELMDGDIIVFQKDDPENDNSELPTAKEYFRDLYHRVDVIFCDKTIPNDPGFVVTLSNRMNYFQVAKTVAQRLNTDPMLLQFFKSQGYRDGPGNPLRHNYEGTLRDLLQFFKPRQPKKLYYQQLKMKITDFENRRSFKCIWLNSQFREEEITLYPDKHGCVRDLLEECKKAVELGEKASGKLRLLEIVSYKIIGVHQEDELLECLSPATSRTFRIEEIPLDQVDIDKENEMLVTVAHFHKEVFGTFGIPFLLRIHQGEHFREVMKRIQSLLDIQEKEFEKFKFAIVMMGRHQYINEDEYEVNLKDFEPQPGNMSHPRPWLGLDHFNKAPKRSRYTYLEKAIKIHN

For “3-(4-fluoro-3-methoxyphenyl)-6-{[1-(4-fluorobenzoyl)-4-hydroxypiperidin-4-yl]methyl}-6H,7H-[1,2]thiazolo[4,5-d]pyrimidin-7-one [Compound I-9]”, the IC50 was > 10 µM.

In the case of `O=C(c1ccc(F)cc1)N1CCC(O)(Cn2cnc3c(-c4ccccc4)nsc3c2=O)CC1` [Compound I-1, 6-{[1-(4-fluorobenzoyl)-4-hydroxypiperidin-4-yl]methyl}-3-phenyl-6H,7H-[1,2]thiazolo[4,5-d]pyrimidin-7-one], the IC50 is reported as > 10 µM.

For `COc1ccc(-c2nsc3c(=O)n(CC4(O)CCN(C(=O)c5ccc(F)cc5)CC4)cnc23)cc1` [Compound I-2, 6-{[1-(4-fluorobenzoyl)-4-hydroxypiperidin-4-yl]methyl}-3-(4-methoxyphenyl)-6H,7H-[1,2]thiazolo[4,5-d]pyrimidin-7-one], the IC50 was 1 to 10 µM.

In the case of `COc1ccc(C(=O)N2CCC(O)(Cn3cnc4c(-c5ccc(F)cc5)nsc4c3=O)CC2)cc1` [Compound I-3, 3-(4-fluorophenyl)-6-{[4-hydroxy-1-(4-methoxybenzoyl)piperidin-4-yl]methyl}-6H,7H-[1,2]thiazolo[4,5-d]pyrimidin-7-one], the IC50 is reported as 1 to 10 µM.

`O=C(c1ccc(F)cc1)N1CCC(O)(Cn2cnc3c(-c4cccc(CO)c4)nsc3c2=O)CC1` [Compound I-4, 6-{[1-(4-fluorobenzoyl)-4-hydroxypiperidin-4-yl]methyl}-3-[3-(hydroxymethyl)phenyl]-6H,7H-[1,2]thiazolo[4,5-d]pyrimidin-7-one] showed an IC50 of 1 to 10 µM.

For `O=C(c1ccc(F)cc1)N1CCC(O)(Cn2cnc3c(-c4ccc(F)cc4)n[nH]c3c2=O)CC1` [Compound I-5, 6-{[1-(4-fluorobenzoyl)-4-hydroxypiperidin-4-yl]methyl}-3-(4-fluorophenyl)-1H,6H,7H-pyrazolo[4,3-d]pyrimidin-7-one], the IC50 was 0.5 to 1 µM.

For `COc1ccc(-c2n[nH]c3c(=O)n(CC4(O)CCN(C(=O)c5ccc(F)cc5)CC4)cnc23)cc1` [Compound I-6, 6-{[1-(4-fluorobenzoyl)-4-hydroxypiperidin-4-yl]methyl}-3-(4-methoxyphenyl)-1H, 6H,7H-pyrazolo[4,3-d]pyrimidin-7-one], the IC50 was < 0.5 µM.

`COc1ccc(C(=O)N2CCC(O)(Cn3cnc4c(-c5ccccc5)n[nH]c4c3=O)CC2)cc1` [Compound I-7, 6-{[4-hydroxy-1-(4-methoxybenzoyl)piperidin-4-yl]methyl}-3-phenyl-1H,6H,7H-pyrazolo[4,3-d]pyrimidin-7-one] gave an IC50 of 1 to 10 µM.

`COc1ccc(C(=O)N2CCC(O)(Cn3cnc4c(-c5ccccc5)nsc4c3=O)CC2)cc1` [Compound I-8, 6-{[4-hydroxy-1-(4-methoxybenzoyl)piperidin-4-yl]methyl}-3-phenyl-6H,7H-[1,2]thiazolo[4,5-d]pyrimidin-7-one] gave an IC50 of 1 to 10 µM.

`CN1CCN(c2ccc(C(=O)N3CCC(O)(Cn4cnc5c(-c6ccc(F)cc6)nsc5c4=O)CC3)nc2)CC1` [Compound I-10, 3-(4-fluorophenyl)-6-({4-hydroxy-1-[5-(4-methylpiperazin-1-yl)pyridine-2-carbonyl]piperidin-4-yl}methyl)-6H,7H-[1,2]thiazolo[4,5-d]pyrimidin-7-one] was tested, and the IC50 was > 10 µM.

`CC(CC(=O)N1CCC(O)(Cn2cnc3c(-c4ccccc4)nsc3c2=O)CC1)c1ccccc1` (stereo not shown) [Compound I-11, 6-{[4-hydroxy-1-(3-phenylbutanoyl)piperidin-4-yl]methyl}-3-phenyl-6H,7H-[1,2]thiazolo[4,5-d]pyrimidin-7-one] showed an IC50 of 0.5 to 1 µM.

For `C[C@@H](CC(=O)N1CCC(O)(Cn2cnc3c(-c4ccccc4)nsc3c2=O)CC1)c1ccccc1` [Compound I-12, 6-({4-hydroxy-1-[(3 S)-3-phenylbutanoyl]piperidin-4-yl}methyl)-3-phenyl-6H,7H-[1,2]thiazolo[4,5-d]pyrimidin-7-one], the IC50 was < 0.5 µM.

With `C[C@H](CC(=O)N1CCC(O)(Cn2cnc3c(-c4ccccc4)nsc3c2=O)CC1)c1ccccc1` [Compound I-13, 6-({4-hydroxy-1-[(3R)-3-phenylbutanoyl]piperidin-4-yl}methyl)-3-phenyl-6H,7H-[1,2]thiazolo[4,5-d]pyrimidin-7-one] the IC50 was 1 to 10 µM.

Molecule `CC(CC(=O)N1CCC(O)(Cn2cnc3c(-c4ccccc4)nsc3c2=O)CC1)n1cccn1` (stereo not shown) [Compound I-14, 6-({4-hydroxy-1-[3-(1H-pyrazol-1-yl)butanoyl]piperidin-4-yl}methyl)-3-phenyl-6H,7H-[1,2]thiazolo[4,5-d]pyrimidin-7-one] has an IC50 of 1 to 10 µM.

With `C[C@@H](CC(=O)N1CCC(O)(Cn2cnc3c(-c4ccccc4)nsc3c2=O)CC1)n1cccn1` [Compound I-15, 6-({4-hydroxy-1-[(3 S)-3-(1H-pyrazol-1-yl)butanoyl]piperidin-4-yl}methyl)-3-phenyl-6H,7H-[1,2]thiazolo[4,5-d]pyrimidin-7-one] the IC50 was 1 to 10 µM.

Work on `C[C@H](CC(=O)N1CCC(O)(Cn2cnc3c(-c4ccccc4)nsc3c2=O)CC1)n1cccn1` [Compound I-16, 6-({4-hydroxy-1-[(3R)-3-(1H-pyrazol-1-yl)butanoyl]piperidin-4-yl}methyl)-3-phenyl-6H,7H-[1,2]thiazolo[4,5-d]pyrimidin-7-one] yielded an IC50 of 1 to 10 µM.

`O=C(CC(c1ccccc1)C(F)F)N1CCC(O)(Cn2cnc3c(-c4ccccc4)nsc3c2=O)CC1` (stereo not shown) [Compound I-17, 6-{[1-(4,4-difluoro-3-phenylbutanoyl)-4-hydroxypiperidin-4-yl]methyl}-3-phenyl-6H,7H-[1,2]thiazolo[4,5-d]pyrimidin-7-one] was tested, and the IC50 was 1 to 10 µM.

`O=C(C[C@H](c1ccccc1)C(F)F)N1CCC(O)(Cn2cnc3c(-c4ccccc4)nsc3c2=O)CC1` [Compound I-18, 6-({1-[(3R)-4,4-difluoro-3-phenylbutanoyl]-4-hydroxypiperidin-4-yl}methyl)-3-phenyl-6H,7H-[1,2]thiazolo[4,5-d]pyrimidin-7-one] was tested, and the IC50 was > 10 µM.

For `O=C(C[C@@H](c1ccccc1)C(F)F)N1CCC(O)(Cn2cnc3c(-c4ccccc4)nsc3c2=O)CC1` [Compound I-19, 6-({1-[(3 S)-4,4-difluoro-3-phenylbutanoyl]-4-hydroxypiperidin-4-yl}methyl)-3-phenyl-6H, 7H-[1,2]thiazolo[4,5-d]pyrimidin-7-one], the IC50 was 0.5 to 1 µM.

Work on `COc1ccc(C(=O)N2CCC(O)(Cn3cnc4c(-c5ccc(F)cc5)n[nH]c4c3=O)CC2)cc1` [Compound I-20, 3-(4-fluorophenyl)-6-{[4-hydroxy-1-(4-methoxybenzoyl)piperidin-4-yl]methyl}-1H, 6H,7H-pyrazolo[4,3-d]pyrimidin-7-one] yielded an IC50 of 1 to 10 µM.

`COc1ccc(C(=O)N2CCC(O)(Cn3cnc4c(-c5ccc(OC)cc5)n[nH]c4c3=O)CC2)cc1` [Compound I-21, 6-{[4-hydroxy-1-(4-methoxybenzoyl)piperidin-4-yl]methyl}-3-(4-methoxyphenyl)-1H,6H,7H-pyrazolo[4,3-d]pyrimidin-7-one] showed an IC50 of 0.5 to 1 µM.

Work on `CN(C)C(=O)N1CCC(O)(Cn2cnc3c(-c4ccc(F)c(N5CCNCC5)c4)nsc3c2=O)CC1` [Compound I-22, 4-({3-[4-fluoro-3-(piperazin-1-yl)phenyl]-7-oxo-6H,7H-[1,2]thiazolo[4,5-d]pyrimidin-6-yl}methyl)-4-hydroxy-N,N-dimethylpiperidine-1-carboxamide] yielded an IC50 of 1 to 10 µM.
